What all share (format): cell-based
The subject of assay [1] is human corneal epithelial cells (HCE-T). Description: Adhesion of human corneal epithelial cell to extracellular matrix (Experimental Example 1). The following applies: polypeptide 100 μg/mL, 50 μL per well, collagen type IV coated plate, 37° C. 20 min, MTT assay, no addition of polypeptide = 100%. The method, then: An extracellular matrix solution (10 μg/mL, collagen type IV: Becton, Dickinson and Company) was added to a 96 well plate (Iwaki Glass Company, Limited). The solution was incubated at 37° C. for 1 hr to coat the plate with the extracellular matrix. After the redundant extracellular matrix solution was removed, 0.1% BSA solution (Sigma-Aldrich Co.) was added to block the region not coated with the extracellular matrix. Successively, the BSA solution was removed and the plate was washed twice with PBS, and polypeptides 1-5 (concentration 100 μg/mL) synthesized in Example 1 and Comparative Example 1 were added by 50 μL per well. Furthermore, established human corneal epithelial cells (HCE-T: can be prepared by the method described in Invest Ophthalmol Vis Sci. 1995, 36, 614) were cultured overnight under serum-free conditions and added to the plate at 2×10^4 cells/100 μL DMEM/F12 medium/well. The plate was incubated at 37° C. for 20 min to allow adhesion of the cells to the plate. The number of the adhered cells was counted by MTT assay (DOJINDO LABORATORIES).
(In general: Tetrazolium assays rely on reduction of a dye to a coloured formazan, in cell work by metabolically active cells.)

Assay [2] has as its system monkey lacrimal gland acinar cells. Description: Secretion of tear protein (lactoferrin) from monkey lacrimal gland acinar cells. As to conditions: 1 μM polypeptide; for lactoferrin secretion amount (ng/10^5 cells): 37° C. 10 min, westernblot, human lactoferrin as standard. The method, then:
Monkey lacrimal gland was chopped in a DMEM/F12 medium (Invitrogen Corporation) and treated with HBSS (Invitrogen Corporation) containing 0.76 mg/mL EDTA (Sigma-Aldrich Co.) and DMEM/F12 medium containing 200 U/mL collagenase A (Roche), 698 U/mL Hyarulonidase (Worthington Biochemical Corporation) and 10 U/mL DNase (Roche Diagnostics K.K.), and the cells were isolated. 1×10^6 cells were sown on a 6 well plate (ASAHI GLASS CO., LTD.) coated with 0.01 mg/cm^2 Collagen I (Becton, Dickinson and Company), and cultured in a CO2 incubator at 37° C. overnight. The next day, the medium was changed to a supplement-free DMEM/F12 medium and the cells were pre-incubated at 37° C. for 30 min, and then incubated in a DMEM/F12 medium containing 1 μM polypeptide 1 or 4 at 37° C. for 10 min. Lactoferrin as a tear protein secreted in the medium was detected by westernblot, and quantified using human lactoferrin (Sigma-Aldrich Co.) as the standard. The collected medium was purified by 2D clean up kit (Bio-Rad Laboratories, Inc.), dissolved in NuPAGE LDS sample buffer (Invitrogen Corporation), and thermally denatured at 70° C. for 10 min. An equivalent amount of a sample was electrophoresed in 4-12% NuPAGE Bis Tris gel in MES buffer (Invitrogen Corporation) at 200 V for 35 min, and blotted on a PVDF membrane (Nihon Millipore K.K.) at 100 V for 60 min using Trans Blot Mini Cell (Bio-Rad Laboratories, Inc.). The membrane was blocked with TTBS (Bio-Rad Laboratories, Inc.) containing 5% skim-milk (Bio-Rad Laboratories, Inc.) at room temperature for 30 min, and reacted overnight at 4° C. with lactoferrin antibody (manufactured in rabbit, Sigma-Aldrich Co.) diluted 1000-fold. After washing the membrane with TTBS, the membrane was reacted at room temperature for 60 min with secondary antibody of anti-rabbit HRP, which was diluted 5000-fold. Then detection using ECL plus (GE healthcare) was performed. In addition, the amount of the secreted lactoferrin was quantified by forming an analytical curve of human lactoferrin on the same membrane, and comparing the density of the bands.

For assay [3], the system named is human corneal epithelial cells (HCE-T). In words: Adhesion of human corneal epithelial cell to extracellular matrix (Experimental Example 2). As to conditions: polypeptide 10 μM in PBS, 50 μL per well, collagen type IV coated plate, 37° C. 25 min, MTT assay, no addition of polypeptide = 100%. The method, then:
An extracellular matrix solution (10 μg/mL, collagen type IV: Becton, Dickinson and Company) was added to a 96 well plate (Iwaki Glass Company, Limited). The solution was incubated at 37° C. for 1 hr to coat the plate with the extracellular matrix. After the redundant extracellular matrix solution was removed, 0.1% BSA solution (Sigma-Aldrich Co.) was added to block the region not coated with the extracellular matrix. Successively, the BSA solution was removed and the plate was washed three times with PBS, and polypeptides 4, 6 and 7 synthesized in Example 2 and Comparative Example 1 were suspended in PBS to a final concentration of 10 μM, and the suspension was added by 50 μL per well. Furthermore, established human corneal epithelial cells (HCE-T: can be prepared by the method described in Invest Ophthalmol Vis Sci. 1995, 36, 614) were cultured overnight under serum-free conditions and added to the plate at 2×10^4 cells/100 μL DMEM/F12 medium/well. The plate was incubated at 37° C. for 25 min to allow adhesion of the cells to the well. The number of the adhered cells was counted by MTT assay (DOJINDO LABORATORIES).

In the case of “EISGPAEPASPPETTTTAQETSAAAVQGTAKVT (listed as Homo sapiens) [polypeptide 4, reference compound]”, the “cell adhesion rate (%)” value is 100% in assay [1] and 107% in assay [3]. Also, in assay [2], the “lactoferrin secretion amount (ng/10^5 cells)” value stood at 2.79 ng/10^5 cells.

On to “EISGPAEPASPPETTTTAQETSAAAVQGTAKVTSSRQELNPLKSIVEKSILLTEQALAKA (listed as Homo sapiens) [polypeptide 7]”, for which, in assay [3], the “cell adhesion rate (%)” value was determined as 190%.

Consider “QGTAKVTSSRQELNPL (listed as Homo sapiens) [polypeptide 5, reference compound]”, for which, in assay [1], the “cell adhesion rate (%)” value turned out to be 98%.

Consider “QGTAKVTSSRQELNPLKSIVEKSILLTEQALAKA (listed as Homo sapiens) [polypeptide 6]”, for which the “cell adhesion rate (%)” value in assay [3] amounted to 160%.

Consider “QGTAKVTSSRQELNPLKSIVEKSILLTEQALAKAGKGMHGGVPGG (listed as Homo sapiens) [polypeptide 2]”, for which the “cell adhesion rate (%)” value in assay [1] is on record as 134%.

Turning to “QGTAKVTSSRQELNPLKSIVEKSILLTEQALAKAGKGMHGGVPGGKQFIENGSEF (listed as Homo sapiens) [polypeptide 3]”, the “cell adhesion rate (%)” value in assay [1] worked out at 147%.

With “VQGTAKVTSSRQELNPLKSIVEKSILLTEQALAKA (listed as Homo sapiens) [polypeptide 1]”, in assay [1], the “cell adhesion rate (%)” value came to 147%. Further, in assay [2], the “lactoferrin secretion amount (ng/10^5 cells)” value is on record as 11.7 ng/10^5 cells. In addition, the “promotion of secretion of lactoferrin (in words)” value in assay [2] (10 min) is reported as “promoted the secretion of lactoferrin”.

Source of the values: patent US8383130B2, “Partial peptide of lacritin” (Senju Pharmaceutical Co., Ltd., priority 2008, dated 2013).
